Test results as given in ChEMBL document CHEMBL1126405, “Novel Biologically Active Taxol Analogues: Baccatin III 13-(N-(p-chlorobenzoyl)-(2R,3S)-3-phenylisoserinate) and Baccatin III 13-(N-benzoyl-(2R,3S)-3-(p-chlorophenyl)isoserinate)” (1992).

Legend:
[1] = system: B16; assay: The compound was tested for cytotoxicity against B16 melanoma cells; format: functional; conditions: Mus musculus, read-out: ED50 (the source's name)
[2] = Effective dose required to promote microtubule assembly at 10 uM tubulin concentration; format: functional

Row | SMILES | EC50 [1] [nM] | ED50 [2] [nM]
1 | CC(=O)O[C@H]1C(=O)[C@]2(C)[C@@H](O)CC3OC[C@@]3(OC(C)=O)[C@H]2[C@H](OC(=O)c2ccccc2)[C@]2(O)C[C@H](OC(=O)[C@H](O)[C@@H](NC(=O)c3ccc(Cl)cc3)c3ccccc3)C(C)=C1C2(C)C (stereo partly specified) | 43 | 1700
2 | CC(=O)O[C@H]1C(=O)[C@@]2(C)[C@H]([C@H](OC(=O)c3ccccc3)[C@]3(O)C[C@H](OC(=O)[C@H](O)[C@@H](NC(=O)c4ccccc4)c4ccc(Cl)cc4)C(C)=C1C3(C)C)[C@]1(OC(C)=O)CO[C@@H]1C[C@@H]2O | 61 | 1300
3 | CC(=O)O[C@H]1C(=O)[C@@]2(C)[C@H]([C@H](OC(=O)c3ccccc3)[C@]3(O)C[C@H](OC(=O)[C@H](O)[C@@H](NC(=O)c4ccccc4)c4ccccc4)C(C)=C1C3(C)C)[C@]1(OC(C)=O)CO[C@@H]1C[C@@H]2O [PACLITAXEL] | 28 | 700
